Experimental data from ChEMBL document CHEMBL1201862, “PubChem BioAssay data set” (2004).
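In this assay, cells in 96-well plates receive the compound at five concentrations for 48 hours. Endpoints are linearly interpolated between the surrounding concentrations. GI50 is the concentration that inhibits growth by half.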 Activity calls are given as the source filed them. Rule as the data show it: active = GI50 up to about 1.1 µM and inactive = higher.

What was measured:
Assay in all cases: inhibition of tumour cell growth, NCI panel, 48 h
U-251 = test system: U-251
Malme-3M = test system: Malme-3M
HL-60 = test system: HL-60
UACC-257 = test system: UACC-257
MDA-MB-231 = test system: MDA-MB-231
MDA-MB-435 = test system: MDA-MB-435
M14 = test system: M14
HCC 2998 = test system: HCC 2998
HOP-92 = test system: HOP-92
OVCAR-5 = test system: OVCAR-5
HOP-62 = test system: HOP-62
SK-MEL-5 = test system: SK-MEL-5
SK-MEL-28 = test system: SK-MEL-28
SF-268 = test system: SF-268
SK-OV-3 = test system: SK-OV-3
RPMI-8226 = test system: RPMI-8226
786-0 = test system: 786-0
NCI-H460 = test system: NCI-H460
CCRF-CEM = test system: CCRF-CEM
OVCAR-3 = test system: OVCAR-3

Measured: GI50

CN(C)c1nc(NC23CC4CC(CC(C4)C2)C3)nc(N(C)C)n1
inactive: U-251 9.1 µM | Malme-3M 33.1 µM | HL-60 3.61 µM | UACC-257 31.3 µM | MDA-MB-231 9.98 µM | MDA-MB-435 21.4 µM | M14 13.1 µM | HCC 2998 > 27.5 µM | HOP-92 10.6 µM | OVCAR-5 10.2 µM | HOP-62 15.7 µM | SK-MEL-5 11.1 µM | SK-MEL-28 22 µM | SF-268 > 42.1 µM | SK-OV-3 > 26.1 µM | RPMI-8226 3.58 µM | 786-0 15.7 µM | NCI-H460 16.6 µM | CCRF-CEM 5.06 µM | OVCAR-3 17.2 µM
